Assay results from patent US5217976A, “1,6-naphthyridone derivatives having angiotensin II antagonist activity” (Imperial Chemical Industries PLC, priority 1991, dated 1993).
pIC50: −log10 of the molar value.

Columns and labels:
[1] = target: T1, angiotensin II (AII) receptors, cell surface membrane fraction of guinea pig adrenal gland (Cavia porcellus, UniProt Q9WV26); experiment: Test A: displacement of radiolabelled AII binding to adrenal membrane fraction (in vitro); settings: guinea pig adrenal membranes, read-out: IC50 (concentration for 50% displacement of radiolabelled AII binding)
T1 construct: from tissue; host or cells: guinea pig adrenal gland, cell surface membrane fraction
T1 sequence (Q9WV26 1-359): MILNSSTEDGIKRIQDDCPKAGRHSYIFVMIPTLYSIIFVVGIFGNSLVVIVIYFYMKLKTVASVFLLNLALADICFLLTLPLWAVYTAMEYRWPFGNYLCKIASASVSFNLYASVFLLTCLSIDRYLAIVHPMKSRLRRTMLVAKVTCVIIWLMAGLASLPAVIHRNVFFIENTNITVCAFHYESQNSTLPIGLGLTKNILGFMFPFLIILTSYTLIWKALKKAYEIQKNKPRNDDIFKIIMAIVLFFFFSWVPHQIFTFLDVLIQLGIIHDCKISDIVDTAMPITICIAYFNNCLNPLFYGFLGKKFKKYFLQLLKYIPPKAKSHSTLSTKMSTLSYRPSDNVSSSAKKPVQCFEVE
Method: Test A: This in vitro procedure involves the incubation of the test compound initially at a concentration of 100 micromolar (or less) in a buffered mixture containing fixed concentrations of radiolabelled AII and a cell surface membrane fraction prepared from a suitable angiotensin target tissue. In this test, the source of cell surface membranes is the guinea pig adrenal gland which is well known to responsd to AII. Interaction of the radiolabelled AII with its receptors (assessed as radiolabel bound to the particulate membrane fraction following removal of unbound radiolabel by a rapid filtration procedure such as is standard in such studies) is antagonized by compounds which also bind to the membrane receptor sites and the degree of antagonism (observed in the test as displacement of membrane-bound radioactivity) is determined readily by comparing the receptor-bound radioactivity in the presence of the test compound at the specified test concentration with a control value determined in the absence of the test compound. Using this procedure compounds showing at least 50% displacement of radiolabelled AII binding at a concentration of 10^-4 M are retested at lower concentrations to determine their potency. […]

[2] = tested on: angiotensin II-induced pressor responses; experiment: Test C: antagonism of angiotensin II-induced pressor responses in anaesthetised or conscious rats (in vivo); settings: iv, rat, i.v. administration
Method: Test C: This in vivo test involves using terminally-anaesthetised or conscious rats in which an arterial catheter has been implanted under anaesthesia for the measurement of changes in blood pressure. The AII antagonistic effects of the test compound following oral or parenteral administration, are assessed against angiotensin II-induced pressor responses. To ensure that the effect is specific, the effect of the test compound on vasopressin-induced pressor responses may also be determined in the same preparation.

pIC50 [1]: 8.05
SMILES: Cc1cc2c(ccc(=O)n2Cc2ccc(-c3ccccc3-c3nnn[nH]3)cc2)c(C)n1.Cl [Example I, 5,7-dimethyl-1[(2'-(1H-tetrazol-5-yl)biphenyl-4-yl)methyl]-1,6-naphthyridin-2(1H)-one hydrochloride]
ED50 [2]: 0.048 mg/kg
